Results on 52 compounds are retold here after ChEMBL document CHEMBL1201862, “PubChem BioAssay data set” (2004).

Among the test systems are BT-549; Hs-578T; T47D; DMS-273; DLD-1; DMS-114; XF498.
Holding throughout (experiment): inhibition of tumour cell growth, NCI panel, 48 h

Structures are written as SMILES.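 All cell lines were grown in 96-well plates and treated with compound for 48 hours. At the GI50, growth is halved.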 Active and inactive are the calls of the source. Cut-off read from the data, not from the text of the source: active = GI50 up to about 1.1 µM and inactive = higher.

Consider `c1ccc2[nH]c3nc4ccccc4c-3cc2c1`, for which the GI50 in the assay with BT-549 was 0.512 µM (active); in the assay on Hs-578T, 0.966 µM (active).

On to `CCOC(=O)C(NS(=O)(=O)c1ccccc1)(C(F)(F)F)P(=O)(OCC(C)C)OCC(C)C` (centres undefined), for which the GI50 in the assay with Hs-578T and in the assay on T47D was > 100 µM (inactive) each time.

On to `COc1ccccc1/C=C/c1c(N)ncnc1Nc1cccc(Cl)c1`, for which the GI50 in the assay with BT-549 is 19.7 µM (inactive); with Hs-578T it was 16.9 µM (inactive); in the assay on T47D, 40.4 µM (inactive).

In the case of `COc1ccc(/C=C2\C[C@H]3[C@@H]4CC=C5C[C@@H](OC(C)=O)CC[C@]5(C)[C@H]4CC[C@]3(C)\C2=N\O)cc1OC`, the GI50 with BT-549 was > 100 µM (inactive); in the assay on Hs-578T it was > 100 µM (inactive); with T47D it was 5.38 µM (inactive).

`CNc1cc([N+](=O)[O-])ccc1C(=O)N1CCC[C@H]1CO`: the GI50 in the assay with T47D was > 100 µM (inactive).

Take `COc1ccccc1N/C(SCc1ccccc1)=C(/C(Cl)=C(Cl)Cl)[N+](=O)[O-]`: the values for the GI50 in the assay on BT-549 and in the assay on T47D were 15.1 µM (inactive) and 26.1 µM (inactive), respectively.

In the case of `COC1(OC)CCN(Cc2ccccc2)C1=O`, the GI50 was 17.2 µM (inactive) with BT-549, > 100 µM (inactive) in the assay with Hs-578T and 4.45 µM (inactive) in the assay with T47D.

`CCC(CO)Nc1nc2c(c(=O)n(C)c(=O)n2C)n1CCO` (centres undefined): the GI50 in the assay on DMS-273 is > 100 µM (inactive).

For the compound `CS(=O)(=O)OCC1OC(n2ccc(NC(=O)c3ccccc3)nc2=O)CC1OS(C)(=O)=O` (centres undefined), the GI50 in the assay with BT-549, in the assay with Hs-578T and in the assay on T47D was > 100 µM (inactive) throughout.

`NC(=O)NOCC1NC(=O)NC1=O` (centres undefined): the GI50 in the assay with BT-549, in the assay with Hs-578T and in the assay on T47D was > 100 µM (inactive) throughout.

Turning to `C/C=C(/C)C(=O)O[C@@H]1CCN2CC[C@H](COC(=O)/C(=C/C)CO)C12` (some centres undefined), the GI50 in the assay on BT-549 was > 100 µM (inactive); with Hs-578T, 36.6 µM (inactive); in the assay with T47D, > 100 µM (inactive).

For `CC(C)C(=O)OCC1CCCN2CCCCC12` (centres undefined), the GI50 in the assay on BT-549 was 21.5 µM (inactive); in the assay with Hs-578T, > 100 µM (inactive).

Take `Clc1ccccc1/C=c1\nc(-c2ccccc2)n2c1nc1ccccc12`: the GI50 with BT-549 was 18.2 µM (inactive); in the assay with Hs-578T it was 25.8 µM (inactive); in the assay on T47D, > 100 µM (inactive).

`Cc1nc2c(=O)[nH]c(=O)nc-2n(CCO)c1C`: the GI50 in the assay with BT-549, in the assay on Hs-578T and in the assay with T47D was > 100 µM (inactive) in each case.

With `CN(C)c1ccc(C2CC(c3ccc4ccccc4c3O)=NN2)cc1` (centres undefined), the GI50 with BT-549 is 39.1 µM (inactive); in the assay on Hs-578T it was 37.4 µM (inactive); in the assay on T47D it was 38.8 µM (inactive).

As to `CN(C)c1cccc(-c2cc(=S)c3cc4c(cc3[nH]2)OCO4)c1`, the values for the GI50 in the assay on BT-549, in the assay with Hs-578T and with T47D were > 100 µM (inactive), 4.28 µM (inactive) and 6.87 µM (inactive), respectively.

Take `O=C1OC(C2=CC(=O)c3ccccc3C2=O)C(Cl)=C1Cl` (centres undefined): the GI50 is 54.7 µM (inactive) with Hs-578T and 29.1 µM (inactive) with T47D.

For the compound `COc1ccc(C(=O)O)c(Br)c1OCc1ccccc1`, the GI50 in the assay on DLD-1, in the assay on DMS-114, in the assay on DMS-273 and in the assay on XF498 was > 100 µM (inactive) each time.

As for `CC(=O)NC(CS/N=N/c1[nH]cnc1C(N)=O)C(=O)O` (centres undefined), the GI50 in the assay on BT-549 is 53 µM (inactive); in the assay with Hs-578T, 16.2 µM (inactive); in the assay with T47D, > 24.1 µM (inactive).

Regarding `COC(=O)[C@@H]1C=C[C@H](OC2OC(COC(C)=O)C(OC(C)=O)C(OC(C)=O)C2OC(C)=O)n2c(=O)c3ccccc3c(=O)n21` (some centres undefined), the GI50 is 4.8 µM (inactive) in the assay on BT-549, 27.7 µM (inactive) with Hs-578T and 4.7 µM (inactive) in the assay on T47D.

Consider `Cc1cc(C)nc(NS(=O)(=O)c2ccc(NNc3c4ccccc4nc4c(C(=O)Nc5ccc(S(N)(=O)=O)cc5)cccc34)cc2)n1`, for which the GI50 is 34.8 µM (inactive) in the assay with BT-549, 64.1 µM (inactive) in the assay on Hs-578T and 4.23 µM (inactive) in the assay on T47D.

As to `CCCC(=O)NC(Nc1ccc(F)cc1)(C(F)(F)F)C(F)(F)F`, the GI50 in the assay on BT-549 was 80 µM (inactive); with Hs-578T, > 55 µM (inactive); with T47D, 7.14 µM (inactive).

As for `CN1N=C(c2ccncc2)OC1c1ccc(Cl)c(Cl)c1` (centres undefined), the GI50 in the assay with Hs-578T and in the assay on T47D was > 100 µM (inactive) in each case.

Take `COc1cc(S(=O)(=O)Nc2nc(-c3ccc(N4C(=O)C(CC(=O)O)SC4c4ccccc4O)cc3)cs2)ccc1Cl` (centres undefined): the GI50 is > 100 µM (inactive) in the assay on Hs-578T and 28.1 µM (inactive) in the assay on T47D.

On to `CC(=O)Nc1nnc(S(=O)(=O)NC(=S)Nc2ccc(Cl)cc2)s1`, for which the GI50 in the assay on BT-549, with Hs-578T and in the assay on T47D was > 100 µM (inactive) each time.

Consider `CN(C)/C=N/n1c2ccccc2c2ccccc21`, for which the GI50 in the assay on Hs-578T was 34 µM (inactive); with T47D, > 100 µM (inactive).

Turning to `O=c1c2cc([N+](=O)[O-])ccc2n2n1Cc1ccccc1C2`, the values for the GI50 in the assay on BT-549, with Hs-578T and in the assay on T47D were 76.2 µM (inactive), 43.4 µM (inactive) and 65.5 µM (inactive), respectively.

Consider `Cc1cc(C)c(P2C(=C(O[Si](C(C)C)(C(C)C)C(C)C)C(C)(C)C)C2(c2ccccc2)c2ccccc2)c(C)c1` (centres undefined), for which the GI50 in the assay with BT-549, in the assay on Hs-578T and with T47D was > 100 µM (inactive) in each case.

Consider `COC(=O)C(=O)C(CC(=O)Nc1cccc(C(F)(F)F)c1)C(=O)OC` (centres undefined), for which the GI50 in the assay on DLD-1 and in the assay with DMS-114 was > 100 µM (inactive) throughout.

Consider `CC(C)(C)[Si](C)(C)OCC1OC(n2ccc(=O)[nH]c2=O)C(O[Si](C)(C)C(C)(C)C)[C@]12O[C@@H]2CO` (some centres undefined), for which the GI50 in the assay on BT-549 was 3.9 µM (inactive).

In the case of `C(/C=N/N=C1NCCCCN1)=N\N=C1NCCCCN1`, the GI50 in the assay on BT-549, in the assay with Hs-578T and with T47D was > 100 µM (inactive) throughout.

`COC(=O)[C@H]1[C@H](OC(=O)[C@@H](OC)c2ccccc2)ON2CC[C@@H](OC(=O)c3ccccc3)[C@H]12`: the figures for the GI50 with Hs-578T and in the assay with T47D were 57.9 µM (inactive) and 91.2 µM (inactive), respectively.

Take `OCC1c2ccccc2-n2nc(-c3ccccc3)c(O)c21` (centres undefined): the GI50 is 20 µM (inactive) with BT-549, 42.2 µM (inactive) in the assay on Hs-578T and 22.3 µM (inactive) with T47D.

Turning to `Cc1ccc(C[P+]2(c3ccccc3)CCCCC2)cc1.[O-][Cl+3]([O-])([O-])[O-]`, the GI50 in the assay with DLD-1 is 84.3 µM (inactive); in the assay on DMS-114, 14.2 µM (inactive); in the assay with DMS-273, 35 µM (inactive); in the assay on XF498 it was < 0.01 µM (active).

For `C/C(=N\N(C)C)C(CN(C)C)C(c1ccccc1)c1c(O)c2ccccc2oc1=O` (centres undefined), the GI50 in the assay on DLD-1, with DMS-114, with DMS-273 and with XF498 was > 100 µM (inactive) throughout.

For the compound `CCOC(=O)C(NC(=O)c1cccc(Cl)c1)(Nc1ccc(S(=O)(=O)Nc2cc(C)nc(C)n2)cc1)C(F)(F)F` (centres undefined), the GI50 in the assay on Hs-578T and in the assay on T47D was > 100 µM (inactive) throughout.

As for `COc1ccc(CNc2nc(NCc3ccc(OC)cc3)nc(NC3CCCCC3)n2)cc1`, the GI50 was 4.08 µM (inactive) with BT-549, 1.77 µM (inactive) in the assay on Hs-578T and 3.51 µM (inactive) in the assay on T47D.

For the compound `CN(C)c1ccc(C(Cc2ccccc2)C2NC(=S)NC2=O)cc1` (centres undefined), the values for the GI50 in the assay with BT-549, with Hs-578T and in the assay with T47D were > 100 µM (inactive), 91.8 µM (inactive) and > 100 µM (inactive), respectively.

Take `O=C1c2ccccc2-c2c1c1ccccc1c(=O)n2Cc1ccco1`: the GI50 is > 100 µM (inactive) in the assay on BT-549, 54.6 µM (inactive) with Hs-578T and > 100 µM (inactive) in the assay on T47D.

`CCOC(=O)c1cc2c(OC(C)=O)ccc(OC(C)=O)c2s1`: the GI50 with BT-549 was 2.13 µM (inactive); in the assay with Hs-578T, 1.69 µM (inactive); in the assay with T47D, 1.48 µM (inactive).

`CCc1nc(N)nc(N)c1-c1ccc(Cc2ccccc2)c([N+](=O)[O-])c1`: the values for the GI50 in the assay with BT-549, in the assay with Hs-578T and with T47D were 13 µM (inactive), 12.3 µM (inactive) and 6.95 µM (inactive), respectively.

With `C=CCC1CC(n2cc(C)c(=O)[nH]c2=O)OC1CO[Si](C)(C)C(C)(C)C` (centres undefined), the GI50 in the assay on BT-549 was 16 µM (inactive); in the assay on Hs-578T, 12.6 µM (inactive); in the assay with T47D, 10.4 µM (inactive).

Consider `c1ccc2c(c1)c(N1CCCCC1)cc1nc3c(cc(N4CCCCC4)c4ccccc43)nc12`, for which the GI50 with BT-549 is > 100 µM (inactive).

For the compound `CCOP(=O)(OCC)C(C)(C)N(C)/C(F)=N/C(F)(F)F`, the GI50 with Hs-578T and in the assay on T47D was > 100 µM (inactive) throughout.

In the case of `CC(C)(C)C(=O)O[C@H]1C=C[C@@H](O)[C@@H]2[C@H]1[C@@H]1C=C[C@H]2C1`, the figures for the GI50 in the assay on BT-549, in the assay on Hs-578T and in the assay on T47D were 3.87 µM (inactive), > 100 µM (inactive) and 24.8 µM (inactive), respectively.

Take `COC(=O)[C@@H](O)[C@]1(C(=O)OC)C2O[C@@H](OC)[C@@H]1CCCCCC[C@H]2O`: the GI50 in the assay with BT-549 and in the assay with Hs-578T was > 100 µM (inactive) in each case.

Consider `C=C(C)C(=O)OC1C[C@H](COC(C)=O)C2CC=C(C)C2C2OC(=O)C(=C)[C@H]12` (some centres undefined), for which the figures for the GI50 in the assay with BT-549, in the assay on Hs-578T and in the assay with T47D were 4.13 µM (inactive), 4.06 µM (inactive) and 4.98 µM (inactive), respectively.

Consider `CN(C)CCOC1(Cc2ccc(Cl)cc2Cl)CCC(C(C)(C)C)CC1` (centres undefined), for which the GI50 in the assay with Hs-578T was 2.4 µM (inactive).

Regarding `CC1=NN(c2ccccc2)C(=O)/C1=C\c1c(C)[nH]n(-c2ccccc2)c1=O`, the values for the GI50 in the assay on BT-549, in the assay with Hs-578T and with T47D were > 100 µM (inactive), > 100 µM (inactive) and 36.1 µM (inactive), respectively.

Consider `C#C[C@]1(O)[C@@H](CO)O[C@@H](n2ccc(N)nc2=O)[C@@H]1O`, for which the GI50 in the assay with BT-549 was 0.0834 µM (active); in the assay with Hs-578T it was 0.108 µM (active); in the assay on T47D, < 0.015 µM (active).

Regarding `CO[C@H]1[C@@H](O)[C@@H](O)O[C@@H](O[C@H]2CC[C@@]3(C)[C@H](CC[C@@H]4[C@@H]3[C@H](O)C[C@]3(C)[C@@H](C5=CC(=O)OC5)CC[C@]43O)C2)[C@@H]1O`, the GI50 in the assay on BT-549 was 0.151 µM (active); with Hs-578T, 0.407 µM (active); with T47D it was 0.362 µM (active).

Turning to `CC(CC(C)(C)[N+](C)(C)C)[N+](C)(C)C` (centres undefined), the GI50 in the assay with BT-549 is > 100 µM (inactive).
